The values that follow come from patent publication US12357711B2, “PSMA binding dual mode radiotracer and therapeutic” (Technische Universität München, priority 2019, dated 2025).

“And” between values parts separate entries of the source, which are not always exact repeats. Equal entries are not always repeated.

In data set [1] the test system is LNCaP tumor-bearing SCID mice. As to the kind of experiment: Biodistribution at 1 h p.i. with competition (co-injected PMPA). Type of data set: in vivo. The note with it: co-injected with PMPA (8 mg/kg). The method, then:
FIG. 11: Biodistribution [% ID/g] of ^18F-rhPSMAs co-injected with PMPA (8 mg/kg) at 1 h p.i in LNCaP tumor-bearing SCID mice. Data are expressed as mean±SD (n=3).

Data set [2] is described as follows: Formation of F-18-fluoride / isotopic exchange in mouse urine. Type of data set: in vitro ADME, mice. How it is done:
For in vivo μmetabolism studies, 8-12 MBq (<0.6 nmol) of the respective ^18F-labeled ligand (rhPSMA-7.1-7.4) was injected into the tail vein of female healthy CB17-SCID mice (n=4). Mice were left under anesthesia for 30 min and the urine was collected using a bladder catheter. Urine samples were pooled and centrifuged for 5 min at 9000 rpm to remove suspended solids. The supernatant was directly used for radio-HPLC analysis with the above mentioned conditions. […] Additionally, this experiment was carried out with the addition of excess Na^19F (0.5 μmop and incubation for 2 h with ^18F-labeled rhPSMA-7.3.
For this purpose normal mice were used. Urine samples were collected by means of a catheter over a period of 30 min. The urine was centrifuged and directly subjected to HPLC and TLC.
Consequently, fresh and nonradioactive urine samples collected from normal mice were incubated with [F-18]rhPSMA7.x for various time periods (see legend to FIG. 21).
To further support the hypothesis, 500 nmol cold F-19-fluoride was added to fresh and nonradioactive urine of mice, followed by the addition of [F-18]rhPSMA7.3 and incubation for 2 h. According to the hypothesis, the high concentration of [F-19]fluoride should result in the formation of a significant amount of [F-18]fluoride.

The target in another data set is T1, human serum albumin (Homo sapiens, UniProt P02768).
T1 construct: purchased H13H-2433
As to the kind of experiment: HSA binding on Chiralpak HSA column. Type of data set: in vitro ADME. The note with it: Chiralpak HSA column (50 × 3 mm, 5 μm).

Data set [3] concerns PSMA-positive LNCaP cells. As to the kind of experiment: Internalization in LNCaP cells, normalized to ([125I]I-BA)KuE. In kind it is cell-based. The note with it: LNCaP cells, 1 hour, 37° C. The method, then:
Data is corrected for non-specific binding ([…]) and expressed as mean±SD (n=3).
Subsequent to the removal of the culture medium, the cells were washed once with 500 μL DMEM-F12 (5% BSA) and left to equilibrate for at least 15 min at 37° C. in 200 μL DMEM-F12 (5% BSA). Each well was treated with either 25 μL of either DMEM-F12 (5% BSA) or a 100 μM PMPA solution for blockade. Next, 25 μL of the ^68Ga/^18F-labeled PSMA inhibitor (5.0 nM) was added and the cells incubated at 37° C. for 60 min. The experiment was terminated by placing the 24-well plate on ice for 3 min and consecutive removal of the medium. Each well was rinsed with 250 μL HBSS and the fractions from these first two steps combined, representing the amount of free radioligand. Removal of surface bound activity was accomplished by incubation of the cells with 250 μL of ice-cold PMPA (10 μM in PBS) solution for 5 min and rinsed again with another 250 μL of ice-cold PBS. The internalized activity was determined by incubation of the cells in 250 μL 1 M NaOH and the combination with the fraction of a subsequent wash step with 250 μL 1.0 M NaOH. Each experiment (control and blockade) was performed in triplicate. Free, surface bound and internalized activity was quantified in a γ-counter. […] Data were corrected for non-specific internalization and normalized to the specific-internalization observed for the radioiodinated reference compound.

Data set [4] can be described thus: Octanol-water partition coefficient (n-octanol/PBS pH 7.4). To be noted: octanol/PBS7.4. Type of data set: physicochemical. How it is done: Approximately 1 MBq of the labeled tracer was dissolved in 1 mL of a 1:1 mixture (by volumes) of phosphate buffered saline (PBS, pH 7.4) and n-octanol in an Eppendorf tube. After vigorous mixing of the suspension for 3 minutes at room temperature, the vial was centrifuged at 15000 g for 3 minutes (Biofuge 15, Heraus Sepatech, Osterode, Germany) and 100 μL aliquots of both layers were measured in a gamma counter. The experiment was repeated at least six times.
Determianation of the IogP values was carried out in phosphate buffered saline (PBS, pH 7.4) and n-octanol (=logPoct/PBS).

T1 sequence (P02768 25-609): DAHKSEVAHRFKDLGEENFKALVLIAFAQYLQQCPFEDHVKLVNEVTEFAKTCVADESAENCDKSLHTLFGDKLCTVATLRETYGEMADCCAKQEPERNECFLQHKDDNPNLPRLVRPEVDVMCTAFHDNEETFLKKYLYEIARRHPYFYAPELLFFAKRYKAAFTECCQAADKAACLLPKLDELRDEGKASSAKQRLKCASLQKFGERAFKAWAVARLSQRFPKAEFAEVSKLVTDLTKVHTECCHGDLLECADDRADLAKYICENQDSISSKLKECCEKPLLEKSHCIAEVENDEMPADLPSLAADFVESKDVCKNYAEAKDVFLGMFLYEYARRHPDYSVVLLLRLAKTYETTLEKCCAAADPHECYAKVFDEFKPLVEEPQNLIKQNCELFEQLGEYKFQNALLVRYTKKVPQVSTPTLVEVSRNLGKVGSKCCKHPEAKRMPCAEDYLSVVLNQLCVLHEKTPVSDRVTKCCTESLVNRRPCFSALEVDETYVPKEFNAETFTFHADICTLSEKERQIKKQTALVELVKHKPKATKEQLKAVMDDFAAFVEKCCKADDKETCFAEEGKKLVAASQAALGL
Procedure for human serum albumin: The mobile phase (A: NH4OAc, 50 mM in water, pH 7 and B: isopropanol) was freshly prepared for each experiment and only used for one day. The column was kept at room temperature and each run was stopped after detection of the signal to reduce the acquisition time. All substances were dissolved in a 0.5 mg/ml concentration in 50% 2-propanol and 50% 50 mM pH 6.9 ammonium acetate buffer. […] All nine reference substances were injected consecutively to establish a non-linear regression with Origin Pro 2016G.

For the compound `CC(C)(C)[Si](F)(c1ccc(C(=O)NC[C@@H](NC(=O)CC[C@@H](C(=O)O)N2CCN(CC(=O)[O-])CCN(CC(=O)[O-])CCN(CC(=O)[O-])CC2)C(=O)N[C@H](CCCCNC(=O)CCC(=O)NCCC[C@@H](NC(=O)CC[C@H](NC(=O)N[C@@H](CCC(=O)O)C(=O)O)C(=O)O)C(=O)O)C(=O)O)cc1)C(C)(C)C.[Ga+3]` [rhPSMA7.3, [^19F][^natGa]D-Dap-S-DOTAGA-rhPSMA7], in data set [1], the Biodistribution adrenals was 0.07 ± 0.09 % ID/g, the Biodistribution blood worked out at 0.55 ± 0.14 % ID/g, the Biodistribution bone worked out at 0.34 ± 0.22 % ID/g and the Biodistribution heart stood at 0.26 ± 0.04 % ID/g. Moreover, in data set [1], the Biodistribution intestine is recorded as 0.94 ± 0.97 % ID/g, the Biodistribution kidneys is recorded as 15.5 ± 2.2 % ID/g, the Biodistribution liver came to 0.46 ± 0.14 % ID/g and the Biodistribution lung turned out to be 0.69 ± 0.10 % ID/g. For the same compound, in data set [1], the Biodistribution muscle is recorded as 0.09 ± 0.02 % ID/g, the Biodistribution pancreas stood at 0.11 ± 0.02 % ID/g, the Biodistribution spleen is listed as 0.35 ± 0.02 % ID/g and the Biodistribution stomach is 0.76 ± 0.74 % ID/g. The compound also had a Biodistribution tumor in data set [1] (LNCaP tumor) of 1.5 ± 0.4 % ID/g. Moreover, in data set [2] (fresh nonradioactive mouse urine + 0.5 μmol (500 nmol) cold F-19-fluoride, incubation 2 h), the “radioactivity converted to [F-18]fluoride” value was found to be 98.5%. Further, the “[F-18]rhPSMA7.3 proportion in radioactive urine after addition of 5 nmol [F-19]rhPSMA7-3” value in data set [2] (room temperature) is 85.8%. Also, in data set [2] (urine with 20.6% [F-18]Fluoride), the “[F-18]rhPSMA7.3 proportion in radioactive urine before addition of cold tracer” value came to 79.4%. Besides, the “HSA Binding” value at human serum albumin turned out to be 96.9%. For the same compound, the individual internalization rates in data set [3] (c=0.5 nM, single measurements) is 156.6 % of [^125I]IB-KuE and 156.0 % of [^125I]IB-KuE and 171.7 % of [^125I]IB-KuE. Also, the “internalization rate Mean” value in data set [3] (mean) was 161.41 % of [^125I]IB-KuE. In data set [4] (mean of individual measurements), the “log P Mean” value was −3.26. Further, the “individual log P measurements” value in data set [4] (single measurements) is −3.06 and −3.07 and −2.86 and −3.39 and −3.33 and −3.34 and −3.20 and −3.40 and −3.41 and −3.48 and −3.49 and −3.32 and −3.45 and −3.53 and −3.43 and −3.56 and −3.03 and −3.08 and −3.02.
Take “[^19F][^natGa]D/L-Dap-R/S-DOTAGA-rhPSMA7 [rhPSMA7-rac]”: the “HSA Binding” value on human serum albumin is recorded as 96.7%.
